Test results as given in patent US20230097700A1, “AZETIDINE SULFONAMIDE COMPOUND” (DAIICHI SANKYO COMPANY, LIMITED, priority 2019, published 2023).

How the values were obtained:
[1] = tested on: activated T cells (CD4+ T cells derived from the mouse spleen); experiment: Incorporation of 3H-thymidine into activated T cells; assay type: cell-based, mouse (C57BL/6J); conditions: 3H-thymidine incorporation, mouse spleen CD4+ T cells activated with Dynabeads Mouse T-Activator CD3/CD28
How it was run: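 CD4+ T cells were isolated from C57BL/6J mouse spleen cells using the EasySep Mouse CD4+ T cell isolation kit and seeded into 96-well round-bottom plates. They were activated with Dynabeads Mouse T-Activator CD3/CD28 alongside test substance in DMSO, then cultured at 37° C. in 5% CO2. 3H-thymidine uptake was harvested onto UniFilter-96 GF/B plates and counted on a TopCount NXT. Results were normalized to vehicle (100%) and non-activated wells (0%), and IC50 was fitted in Prism.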

[2] = tested on: IFN-α production in mouse spleen cells; experiment: IFN-α production in mouse spleen cells stimulated with TLR9 ligand CpG-ODN D35; assay type: cell-based, mouse (C57BL/6J)
Procedure: The concentration of test substance added is 1 nM to 300 nM. The graph represents a curve showing response to concentration of a test substance, with the IFN-α production of a group not containing a test substance being specified as 100% and the IFN-α production of a group not stimulated being specified as 0%.
IFN-α production by stimulation with TLR9 ligand CpG-ODN D35 activating pDC was evaluated. Spleen cells were prepared from a C57BL/6J mouse euthanized in the same manner as in Test Example 1 and seeded to a 96-well round-bottom plate. Test substance dissolved in DMSO or vehicle (DMSO) was added to culture medium. After pre-incubation was carried out for 30 minutes, CpG-ODN […] (final concentration 1 μM) was added. Culture was carried out at 37° C. in 5% CO2. After culture was carried out for 24 hours, the culture supernatant was recovered. The concentration of IFN-α in the supernatant was measured by ELISA kit (Mouse IFN-alpha Platinum ELISA Kit, eBioscience). With the IFN-α production of a group not containing a test substance being specified as 100% and the IFN-α production of a group not activated being specified as 0%, relative values of IFN-α production of individual wells (IFN-α production rate, % of vehicle) were calculated. The values of “% of vehicle” of IFN-α production were entered in analysis software Prism (Version 5.0, GraphPad Software). […]

IC50 [1]: 20 nM | IC50 ([2]; CpG-ODN stimulation 1 μM, 24 hours, ELISA): 13 nM
Compound: N[C@@H](Cc1cccc(S(=O)(=O)N2CC(Oc3cccc(F)c3)(c3ccccc3)C2)c1)C(=O)O [Example 1, (2S)-2-Amino-3-(3-{[3-(3-fluorophenoxy)-3-phenylazetidin-1-yl]sulfonyl)phenyl)propanoic acid]
suppressive action on IFN-α production ([2]; test substance 1 nM to 300 nM): concentration-dependent suppressive action
